Source: PubChem BioAssay AID1845203 (Molecular Pharmacology Branch, DTP, NCI, 2023)

Tested on: G-401 tumor spheroids, viability % test/control
Assay: Anticancer human tumor G-401 cell line growth inhibition;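 further: spheroids exposed to compound for 7 days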;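 on viability, T/C: 100% = DMSO vehicle-treated spheroids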
Settings: spheroids with HUVEC and MSC; for IC50: curve of first compound; for viability, T/C: stronger effect = lower value
Method in brief: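 Complex spheroids of malignant cells with endothelial cells and mesenchymal stem cells; agents alone or combined, from near clinical Cmax (or 10 microM if unknown) down in half-log steps, 0.25% DMSO final.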

Cc1sc2c(c1C)C(c1ccc(Cl)cc1)=NC(CC(=O)Nc1ccc(O)cc1)c1nnc(C)n1-2 (stereo not given) + CC[C@@]1(O)C(=O)OCc2c1cc1n(c2=O)Cc2cc3c(CN(C)C)c(O)ccc3nc2-1
IC50 (second compound 0.003 µM): 46.5 nM
IC50 (second compound 0.00949 µM): < 9.49 nM
IC50 (second compound 0.03 µM): < 9.49 nM
IC50 (second compound 0.0949 µM): < 9.49 nM
IC50 (second compound 0.3 µM): < 9.49 nM
viability, T/C (second compound 0.003 µM, first compound 0.00949 µM): 72%
viability, T/C (second compound 0.003 µM, first compound 0.03 µM): 57.4%
viability, T/C (second compound 0.003 µM, first compound 0.0949 µM): 38.5%
viability, T/C (second compound 0.003 µM, first compound 0.3 µM): 25.3%
viability, T/C (second compound 0.003 µM, first compound 0.949 µM): 15.4%
viability, T/C (second compound 0.003 µM, first compound 3 µM): 6.8%
viability, T/C (second compound 0.00949 µM, first compound 0.00949 µM): 38.3%
viability, T/C (second compound 0.00949 µM, first compound 0.03 µM): 40.3%
viability, T/C (second compound 0.00949 µM, first compound 0.0949 µM): 22.1%
viability, T/C (second compound 0.00949 µM, first compound 0.3 µM): 17%
viability, T/C (second compound 0.00949 µM, first compound 0.949 µM): 6.36%
viability, T/C (second compound 0.00949 µM, first compound 3 µM): 3.51%
viability, T/C (second compound 0.03 µM, first compound 0.00949 µM): 13.9%
viability, T/C (second compound 0.03 µM, first compound 0.03 µM): 11.6%
viability, T/C (second compound 0.03 µM, first compound 0.0949 µM): 9.1%
viability, T/C (second compound 0.03 µM, first compound 0.3 µM): 6.33%
viability, T/C (second compound 0.03 µM, first compound 0.949 µM): 3.18%
viability, T/C (second compound 0.03 µM, first compound 3 µM): 1.34%
viability, T/C (second compound 0.0949 µM, first compound 0.00949 µM): 7.96%
viability, T/C (second compound 0.0949 µM, first compound 0.03 µM): 5.07%
viability, T/C (second compound 0.0949 µM, first compound 0.0949 µM): 4.63%
viability, T/C (second compound 0.0949 µM, first compound 0.3 µM): 2.93%
viability, T/C (second compound 0.0949 µM, first compound 0.949 µM): 1.21%
viability, T/C (second compound 0.0949 µM, first compound 3 µM): 0.82%
viability, T/C (second compound 0.3 µM, first compound 0.00949 µM): 4.4%
viability, T/C (second compound 0.3 µM, first compound 0.03 µM): 3.79%
viability, T/C (second compound 0.3 µM, first compound 0.0949 µM): 3.23%
viability, T/C (second compound 0.3 µM, first compound 0.3 µM): 1.9%
viability, T/C (second compound 0.3 µM, first compound 0.949 µM): 1.03%
viability, T/C (second compound 0.3 µM, first compound 3 µM): 0.5%

COc1ccc([C@@H](O)c2cc(-c3ncnc4cc(N5CCOCC5)ccc34)c(F)cc2Cl)nn1 + COc1cc2c(cc1O)CCNC21CSC2c3c(OC(C)=O)c(C)c4c(c3C(COC1=O)N1C(O)C3Cc5cc(C)c(OC)c(O)c5C(C21)N3C)OCO4
IC50 (second compound 30 pM): 1000 nM
IC50 (second compound 94.9 pM): 493 nM
IC50 (second compound 0.0003 µM): < 31.6 nM
IC50 (second compound 0.000949 µM): < 31.6 nM
IC50 (second compound 0.003 µM): < 31.6 nM
viability, T/C (second compound 30 pM, first compound 0.0316 µM): 93.1%
viability, T/C (second compound 30 pM, first compound 0.1 µM): 99.2%
viability, T/C (second compound 30 pM, first compound 0.316 µM): 87.4%
viability, T/C (second compound 30 pM, first compound 1 µM): 50%
viability, T/C (second compound 30 pM, first compound 3.16 µM): 16.5%
viability, T/C (second compound 30 pM, first compound 10 µM): 9.53%
viability, T/C (second compound 94.9 pM, first compound 0.0316 µM): 83.8%
viability, T/C (second compound 94.9 pM, first compound 0.1 µM): 83.1%
viability, T/C (second compound 94.9 pM, first compound 0.316 µM): 63.6%
viability, T/C (second compound 94.9 pM, first compound 1 µM): 27.7%
viability, T/C (second compound 94.9 pM, first compound 3.16 µM): 9.96%
viability, T/C (second compound 94.9 pM, first compound 10 µM): 5.51%
viability, T/C (second compound 0.0003 µM, first compound 0.0316 µM): 40%
viability, T/C (second compound 0.0003 µM, first compound 0.1 µM): 29.8%
viability, T/C (second compound 0.0003 µM, first compound 0.316 µM): 18.6%
viability, T/C (second compound 0.0003 µM, first compound 1 µM): 8.98%
viability, T/C (second compound 0.0003 µM, first compound 3.16 µM): 3.1%
viability, T/C (second compound 0.0003 µM, first compound 10 µM): 0.75%
viability, T/C (second compound 0.000949 µM, first compound 0.0316 µM): 5.15%
viability, T/C (second compound 0.000949 µM, first compound 0.1 µM): 5.57%
viability, T/C (second compound 0.000949 µM, first compound 0.316 µM): 2.21%
viability, T/C (second compound 0.000949 µM, first compound 1 µM): 0.51%
viability, T/C (second compound 0.000949 µM, first compound 3.16 µM): 0.05%
viability, T/C (second compound 0.000949 µM, first compound 10 µM): 0.16%
viability, T/C (second compound 0.003 µM, first compound 0.0316 µM): 0.22%
viability, T/C (second compound 0.003 µM, first compound 0.1 µM): 0.25%
viability, T/C (second compound 0.003 µM, first compound 0.316 µM): 0.21%
viability, T/C (second compound 0.003 µM, first compound 1 µM): 0.21%
viability, T/C (second compound 0.003 µM, first compound 3.16 µM): 0.16%
viability, T/C (second compound 0.003 µM, first compound 10 µM): 0.25%
